From BindingDB's records for doi:10.1021/acs.jmedchem.0c01882 (Reviral, 2021)

Test: Inhibition of Respiratory syncytial virus A2 fusion protein expressed in HEK293T cells harboring GAL4-NF-kappaB assessed as reduction in cell-cell fusion by luciferase assay

With `CC(C)CCn1c(CN2C(=O)C3(CC3)c3cc(Cl)ccc32)nc2cc(CN)ccc21` as the compound, how does the IC50 read?
The IC50 was 4.5 nM.

Which IC50 does the source give for `NCc1ccc2c(c1)nc(CN1C(=O)C3(CC3)c3ccc(F)cc31)n2CCCC(F)(F)F` [Sisunatovir] here?
The IC50 was 0.9 nM.

With `NC(=O)c1ccc2c(c1)nc(CN1C(=O)C3(CC3)c3ccc(F)cc31)n2CCCC(F)(F)F` as the compound, how does the IC50 read?
Its IC50 is 71 nM.

With `CC(=O)NCc1ccc2c(c1)nc(CN1C(=O)C3(CC3)c3ccc(F)cc31)n2CCCC(F)(F)F` as the compound, how does the IC50 read?
The IC50 was 365 nM.

For `CCNC(=N)c1ccc2c(c1)nc(CN1C(=O)C3(CC3)c3ccc(F)cc31)n2CCCC(F)(F)F`, which IC50 is on record?
The IC50 was 641 nM.

For `NCc1ccc2c(c1)nc(CN1C(=O)C3(CC3)c3ccc(F)cc31)n2C1CCOCC1`, which IC50 is on record?
Its IC50 is 1.2 nM.

With `O=C(O)c1ccc2c(c1)nc(CN1C(=O)C3(CC3)c3ccc(F)cc31)n2CCCC(F)(F)F` as the compound, how does the IC50 read?
Its IC50 is > 25000 nM.

Which IC50 does the source give for `CC(C)CCn1c(CN2C(=O)C3(CC3)c3cccc(F)c32)nc2cc(CN)ccc21` here?
Its IC50 is 1.3 nM.

For `CC(C)CCn1c(CN2C(=O)C3(CC3)c3cccc(Cl)c32)nc2cc(CN)ccc21`, which IC50 is on record?
Its IC50 is 47 nM.

For `NCc1ccc2c(c1)nc(CN1C(=O)C3(CC3)c3ccc(F)cc31)n2CCCCO`, which IC50 is on record?
The IC50 was 1.5 nM.

For `CS(=O)(=O)CCCn1c(CN2C(=O)C3(CC3)c3ccc(F)cc32)nc2cc(CN)ccc21`, which IC50 is on record?
Its IC50 is 2.6 nM.

With `NCc1ccc2c(c1)nc(CN1C(=O)C3(CC3)c3cccc(F)c31)n2CCCC(F)(F)F` as the compound, how does the IC50 read?
Its IC50 is 1 nM.

Which IC50 does the source give for `CC(C)CCn1c(CN2C(=O)C3(CC3)c3ccc(Cl)cc32)nc2cc(CN)ccc21` here?
The IC50 was 1.2 nM.

With `N=C(N)c1ccc2c(c1)nc(CN1C(=O)C3(CC3)c3ccc(F)cc31)n2CCCC(F)(F)F` as the compound, how does the IC50 read?
Its IC50 is 3 nM.

With `CS(=O)(=O)c1ccc2c(c1)nc(CN1C(=O)C3(CC3)c3ccc(F)cc31)n2CCCC(F)(F)F` as the compound, how does the IC50 read?
Its IC50 is 1070 nM.

With `CC(C)CCn1c(CN2C(=O)C3(CC3)c3c(Cl)cccc32)nc2cc(CN)ccc21` as the compound, how does the IC50 read?
Its IC50 is 11 nM.

Which IC50 does the source give for `O=C1N(Cc2nc3cc(Cl)ccc3n2CCCC(F)(F)F)c2cc(F)ccc2C12CC2` here?
Its IC50 is 6.2 nM.

Which IC50 does the source give for `CC(C)CCn1c(CN2C(=O)C3(CC3)c3cc(F)ccc32)nc2cc(CN)ccc21` here?
The IC50 was 0.7 nM.

Which IC50 does the source give for `CC(C)CCn1c(CN2C(=O)C3(CC3)c3ccccc32)nc2cc(CN)ccc21` here?
The IC50 was 0.4 nM.

Which IC50 does the source give for `N=C(N)NCc1ccc2c(c1)nc(CN1C(=O)C3(CC3)c3ccc(F)cc31)n2CCCC(F)(F)F` here?
Its IC50 is 183 nM.

Which IC50 does the source give for `NCc1ccc2c(c1)nc(CN1C(=O)C3(CC3)c3ccc(F)cc31)n2C1CCC(O)CC1` (stereo not drawn) here?
Its IC50 is 2.6 nM.

With `O=C1N(Cc2nc3ccccc3n2CCCC(F)(F)F)c2cc(F)ccc2C12CC2` as the compound, how does the IC50 read?
The IC50 was 37 nM.

Which IC50 does the source give for `CC(C)CCn1c(CN2C(=O)C3(CC3)c3ccc(F)cc32)nc2cc(CN)ccc21` here?
The IC50 was 0.5 nM.
